Laboratory results published in patent publication US20260001863A1, “NOVEL PYRIDAZINES” (Boehringer Ingelheim International GmbH, priority 2019, published 2026).

test system: plasma LPA; assay: Assay C: In Vivo (plasma LPA reduction after oral dosing); settings: rats, oral 5 mg/kg, plasma 8 hours post application vs baseline; sum of LPA 16:0, 18:0, 18:1, 18:2, 20:4
Method: The test substance was solubilized in 0.5% natrosol supplemented with 0.015% Tween 80 for oral application to rats at a dose of 5 mg/kg. Blood samples were collected before compound administration and 8 hours post application on ice using EDTA as coagulation agent. Subsequently, plasma was prepared by centrifugation and stored until analysis at −20° C.
LPAs from plasma samples were extracted by using the procedure described by Scherer et al. (Clinical chemistry 2009, 55, 1218-22). 35 μL of heparinized plasma was mixed with 200 μL 40 mM disodium hydrogen phosphate buffer containing 30 mM citric acid (pH 4) and 1 μM 17:0 LPA (internal standard). Subsequently, 500 μL butanol was added and shaken vigorously for 10 min. Samples were centrifuged afterwards at 4000 rpm, 4° C., for 10 min. 500 μL of the organic upper phase was transferred to a fresh 96-deep-well plate and evaporated with a gentle nitrogen flow of 15 psi for 45 min. The resultant residual was dissolved in 100 μL ethanol prior to LC-MS analysis.
A Triple Quad 6500 (ABSciex, Toronto, Canada) was equipped with an Agilent 1290 LC system (Agilent, Santa Clara, CA) a CTC autosampler and an Atlantis 50×2.1-mm, 3-μm HILIC LC column (Waters, Elstree, UK). Eluent A contained 0.2% formic acid and 50 mM ammonium formate in water, whereas eluent B consisted of 0.2% formic acid in acetonitrile. […] At 1.8 min, solvent B was set back to 95% and stayed constant for 0.7 min for re-equilibration of the column. The following LPA species were monitored (DP: declustering potential and CE: collision energy): 16:0 LPA at 409.2/152.8, DP=−150, CE=−28; 18:0 LPA at 437.3/152.8, DP=−60, CE=−28; 18:1 LPA at 435.2/152.8, DP=−40, CE=−28; 18:2 LPA at 433.2/152.8, DP=−150, CE=−28; 20:4 LPA at 457.2/152.8, DP=−100, CE=−29 and 17:0 LPA at 423.5/152.8, DP=−100, CE=−36. LPA depletion in percent was calculated based on the baseline LPA levels before test compound application. The sum of LPA refers to the species 16:0; 18:0; 18:1; 18:2 and 20:4

Row | Structure (SMILES) | LPA reduction at 8 h
1 | CC(=O)N1CC2(C1)CN(c1ccc(CNc3ccc(OCc4ccc(C(F)(F)F)nc4)nn3)cc1)C2 [Example 1.1, 1-(6-(4-(((6-((6-(trifluoromethyl)pyridin-3-yl)methoxy)pyridazin-3-yl)amino)methyl)phenyl)-2,6-diazaspiro[3.3]heptan-2-yl)ethan-1-one] | 96.5%
2 | CC(=O)N1CC2(C1)CN(c1ccc(CNc3ccc(OCc4ccc(C(F)F)nc4)nn3)cc1)C2 [Example 1.2] | 96.7%
3 | CCc1nc2c(C)cc(N3CCN(CC(=O)N4CC(O)C4)CC3)cn2c1N(C)c1nc(-c2ccc(F)cc2)c(C#N)s1 [Example 2 in WO2014/139882, reference compound] | 58.1%
4 | CC(=O)N1CCN(c2ccc(CNc3ccc(OCc4ccc(C(F)(F)F)nc4)nn3)cc2)CC1 [Example 2.2] | 94.1%
5 | CC(=O)N1CCN(c2ccc(CNc3ccc(OCc4ccc(C(F)(F)F)nc4)nn3)cn2)CC1 [Example 2.5] | 95.9%
6 | CC(=O)N1CCN(c2ccc(CNc3ccc(OCc4cnc(C(F)F)c(F)c4)nn3)cc2)CC1 [Example 2.12] | 94.6%
7 | CC(=O)N1CCN(c2ccc(CNc3ccc(OCc4ccc(C(F)F)nc4)nn3)cc2)CC1 [Example 3, 1-[4-(4-{[(6-{[6-(Difluoromethyl)pyridin-3-yl]methoxy}pyridazin-3-yl)amino]methyl}-phenyl)piperazin-1-yl]ethan-1-one] | 99.9%
8 | O=C(NC[C@@H]1[C@H]2CN(C(=O)OCc3cc(C(F)(F)F)cc(C(F)(F)F)c3)C[C@@H]12)c1ccc2[nH]nnc2c1 [reference compound] | 40.7%

target: Human ATX (Homo sapiens (Human), UniProt Q13822); assay: Assay A: Biochemical ATX Assay; settings: 5 nM recombinant ATX, 18:1 LPC substrate, 2 h at room temperature, formation of 18:1 LPA by RapidFire MS
Method: 5 nM recombinant ATX (Cayman Chemicals) was supplemented to 50 mM Tris buffer (pH 8.0) containing 3 mM KCl, 1 mM CaCl2, 1 mM MgCl2 0.14 mM NaCl, and 0.1% bovine serum albumin. Test compounds were dissolved in DMSO and tested in the range of 0.1 nM to 10 μM. The enzymatic reaction (22.5 μL) was started by addition of 2.5 μL 10 μM 18:1 LPC (Avanti Lipids, Alabaster, AL, USA). After 2-h incubation at room temperature, the reaction was stopped by addition of 20 μL water containing 500 nM 20:4 LPA as internal standard and 100 μL 1-butanol for extracting LPA. Subsequently, the plates were centrifuged at 4000 rpm, 4° C., for 2 min. The resultant upper butanol phase was directly used for injection at a RapidFire system (Agilent).
The RapidFire autosampler was coupled to a binary pump (Agilent 1290) and a Triple Quad 6500 (ABSciex, Toronto, Canada). […] 1 The MS was operated in negative mode with a source temperature of 550° C., curtain gas=35, gas 1=65, and gas 2=80. The following transitions and MS parameters (DP: declustering potential and CE: collision energy) for the respective LPAs were determined: • 18:1 LPA at 435.2/152.8, DP=−40, CE=−28 and 20:4 LPA at 457.2/152.8, DP=−100, CE=−27).
The formation of 18:1 LPA was monitored and evaluated as ratio to 20:4 LPA.

Row | Structure (SMILES) | IC50
9 | CC(=O)N1CC2(C1)CN(c1ccc(CNc3ccc(OCc4ccc(C(F)(F)F)nc4)nn3)cc1)C2 [Example 1.1, 1-(6-(4-(((6-((6-(trifluoromethyl)pyridin-3-yl)methoxy)pyridazin-3-yl)amino)methyl)phenyl)-2,6-diazaspiro[3.3]heptan-2-yl)ethan-1-one] | 3.4 nM
10 | CC(=O)N1CC2(C1)CN(c1ccc(CNc3ccc(OCc4ccc(C(F)F)nc4)nn3)cc1)C2 [Example 1.2] | 2.9 nM
11 | CC(=O)N1CCN(c2ccc(CNc3ccc(OCc4ccc(C(F)F)nc4)nn3)cc2F)CC1 [Example 1.3] | 1.5 nM
12 | CC(=O)N1CCN(c2ccc(CNc3ccc(OCc4ccc(C(F)F)nc4)nn3)c(F)c2)CC1 [Example 1.4] | 3.3 nM
13 | CN1CC2(CC1=O)CN(c1ccc(CNc3ccc(OCc4ccc(C(F)F)nc4)nn3)cc1)C2 [Example 1.5] | 3.9 nM
14 | CC(=O)N1CCC2(CC1)CN(c1ccc(CNc3ccc(OCc4ccc(C(F)F)nc4)nn3)cc1)C2 [Example 1.6] | 6.5 nM
15 | CC(=O)N1CCN(c2ccc(CNc3ccc(OCc4ccc(C(F)F)nc4)nn3)cc2)CC1(C)C [Example 1.7] | 1.6 nM
16 | CC(=O)N1CC2CCC(C1)N2c1ccc(CNc2ccc(OCc3ccc(C(F)(F)F)nc3)nn2)cc1 [Example 2.19] | 2.4 nM
17 | CC(=O)N1CCN(c2ccc(CNc3ccc(OCc4ccc(C(F)F)nc4)nn3)cc2)CC1 [Example 3, 1-[4-(4-{[(6-{[6-(Difluoromethyl)pyridin-3-yl]methoxy}pyridazin-3-yl)amino]methyl}-phenyl)piperazin-1-yl]ethan-1-one] | 2.9 nM
18 | CC(=O)N1CC[C@@H]2CN(c3ccc(CNc4ccc(OCc5ccc(C(F)(F)F)nc5)nn4)cc3)C[C@@H]2CC1 [Example 4, 1-[(3aR,8aS)-2-(4-{[(6-{[6-(trifluoromethyl)pyridin-3-yl]methoxy}pyridazin-3-yl)amino]methyl}phenyl)-decahydropyrrolo[3,4-d]azepin-6-yl]ethan-1-one] | 8.6 nM
19 | CC(=O)N1C[C@@H]2[C@H](C1)[C@H]1CN(c3ccc(CNc4ccc(OCc5ccc(C(F)(F)F)nc5)nn4)cc3)C[C@@H]21 [Example 5, 1-((3aR,3bS,6aR,6bS)-5-(4-(((6-((6-(trifluoromethyl)pyridin-3-yl)methoxy)pyridazin-3-yl)amino)methyl)phenyl)octahydrocyclobuta[1,2-c:3,4-c′]dipyrrol-2(1H)-yl)ethan-1-one] | 7 nM

Now from value to molecule:

Row | IC50 | Structure (SMILES)
20 | 2.3 nM | CC(=O)N(C)C1CCN(c2ccc(CNc3ccc(OCc4ccc(C(F)(F)F)nc4)nn3)cc2)CC1 [Example 2.1, N-methyl-N-[1-(4-{[(6-{[6-(trifluoromethyl)pyridin-3-yl]methoxy}pyridazin-3-yl)amino]methyl}phenyl)piperidin-4-yl]acetamide]
21 | 3 nM | CC(=O)N1CCN(c2ccc(CNc3ccc(OCc4ccc(C(F)(F)F)nc4)nn3)cc2)CC1 [Example 2.2]
22 | 2.2 nM | CC(=O)N1CCN(c2ccc(CNc3ccc(OCc4ccc(C(F)F)nc4)nn3)cn2)CC1 [Example 2.3]
23 | 1.9 nM | CC(=O)N1CCN(c2ccc(CNc3ccc(OCc4ccc(C(F)F)nc4)nn3)nc2)CC1 [Example 2.4]
24 | 2.5 nM | CC(=O)N1CCN(c2ccc(CNc3ccc(OCc4ccc(C(F)(F)F)nc4)nn3)cn2)CC1 [Example 2.5]
25 | 1.8 nM | CC(=O)N1CC2CC1CN2c1ccc(CNc2ccc(OCc3ccc(C(F)F)nc3)nn2)cc1 (centres unmarked) [Example 2.6]
26 | 1.9 nM | CC(=O)N1CCN(c2ccc(CNc3ccc(OCc4ccc(C(F)F)nc4)nn3)c(C(F)(F)F)c2)CC1 [Example 2.7]
27 | 2 nM | FC(F)(F)c1ccc(COc2ccc(NCc3ccc(N4CCN(C5COC5)CC4)cc3)nn2)cn1 [Example 2.8]
28 | 3.7 nM | CC(=O)N1CC2(C1)CN(c1ccc(CNc3ccc(OCc4ccc(C(F)(F)F)nc4)nn3)cc1F)C2 [Example 2.9]
29 | 1.8 nM | FC(F)c1ccc(COc2ccc(NCc3ccc(N4CCN(C5COC5)CC4)cc3)nn2)cn1 [Example 2.10]
30 | 3.8 nM | CC(=O)N[C@H]1[C@@H]2CN(c3ccc(CNc4ccc(OCc5ccc(C(F)(F)F)nc5)nn4)cc3)C[C@@H]21 [Example 2.11]
31 | 3.5 nM | CC(=O)N1CCN(c2ccc(CNc3ccc(OCc4cnc(C(F)F)c(F)c4)nn3)cc2)CC1 [Example 2.12]
32 | 4 nM | CC(=O)N1C[C@@H]2CN(c3ccc(CNc4ccc(OCc5ccc(C(F)(F)F)nc5)nn4)cc3)C[C@@H]2C1 [Example 2.13]
33 | 4.4 nM | CC(=O)N1C[C@@H]2CN(c3ccc(CNc4ccc(OCc5ccc(C(F)F)nc5)nn4)cc3)C[C@@H]2C1 [Example 2.14]
34 | 2.2 nM | CC(=O)N1CCN(c2ccc(CNc3ccc(OCc4ccc(C(F)(F)F)nc4)nn3)nc2)CC1 [Example 2.15]
35 | 10.4 nM | CC(=O)N1CCC2(CC1)CN(c1ccc(CNc3ccc(OCc4ccc(C(F)F)nc4)nn3)nc1)C2 [Example 2.16]
36 | 5.2 nM | CC(=O)N1CCC2(CC1)CN(c1ccc(CNc3ccc(OCc4ccc(C(F)(F)F)nc4)nn3)cn1)C2 [Example 2.17]
37 | 9.2 nM | CC(=O)N1CCC2(CC1)CN(c1ccc(CNc3ccc(OCc4ccc(C(F)F)nc4)nn3)cn1)C2 [Example 2.18]
38 | 2.9 nM | CC(=O)N1CC2CCC1CN2c1ccc(CNc2ccc(OCc3ccc(C(F)(F)F)nc3)nn2)cc1 (centres unmarked) [Example 2.20]
39 | 2.4 nM | CC(=O)N1CC2(C1)CN(c1ccc(CNc3ccc(OCc4ccc(C(F)(F)F)nc4)nn3)c(F)c1)C2 [Example 2.21]
40 | 6.2 nM | CC(=O)N1CCC2(CC1)CN(c1ccc(CNc3ccc(OCc4ccc(C(F)(F)F)nc4)nn3)cc1)C2 [Example 2.22]
41 | 3.9 nM | CC(=O)N1CC2CC1CN2c1ccc(CNc2ccc(OCc3ccc(C(F)(F)F)nc3)nn2)cc1 (centres unmarked) [Example 2.23]
